From PMC3527483, “Phospholipid Mediated Activation of Calcium Dependent Protein Kinase 1 (CaCDPK1) from Chickpea: A New Paradigm of Regulation” (PLoS ONE, 2012)

Target: T1, CaCDPK1 (Cicer arietinum, UniProt Q7XZK5)
T1 construct: gene CDPK1; full ORF in pRSET A (His-tag), expressed in Escherichia coli BL21, Ni-NTA purified under native conditions; tag removal not mentioned
Assay: intrinsic tryptophan fluorescence quenching at […] nm
Assay type: binding
Settings: PA vesicles (sonicated), 1 mM CaCl2, pH 7.2, 25 °C, 1 µM protein; half-maximal fluorescence change; activator

T1 sequence (Q7XZK5 1-556): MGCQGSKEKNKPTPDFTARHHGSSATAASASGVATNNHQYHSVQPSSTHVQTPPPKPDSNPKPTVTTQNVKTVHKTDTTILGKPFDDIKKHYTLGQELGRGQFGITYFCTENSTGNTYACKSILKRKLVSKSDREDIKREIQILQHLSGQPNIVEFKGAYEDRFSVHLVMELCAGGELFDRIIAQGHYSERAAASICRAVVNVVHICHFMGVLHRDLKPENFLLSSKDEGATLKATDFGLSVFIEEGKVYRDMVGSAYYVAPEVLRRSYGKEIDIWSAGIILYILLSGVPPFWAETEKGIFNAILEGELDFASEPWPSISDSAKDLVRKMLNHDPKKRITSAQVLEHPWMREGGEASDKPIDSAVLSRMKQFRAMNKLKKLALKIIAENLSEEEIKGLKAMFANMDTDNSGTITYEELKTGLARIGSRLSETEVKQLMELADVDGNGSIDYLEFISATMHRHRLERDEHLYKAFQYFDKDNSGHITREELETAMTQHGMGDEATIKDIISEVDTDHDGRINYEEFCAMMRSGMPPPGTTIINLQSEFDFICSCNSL

With “1,2-diacyl-sn-gylcero-3-P sodium salt [PA]” the Kd was 335 nM.
